Consider one molecule from BindingDB's records for doi:10.7270/Q2XG9T96 (n/a, 1997).

Molecules are shown by their SMILES.

In the assay the target is Phosphatidylinositol 4-kinase type 2-alpha (Homo sapiens, UniProt Q9BTU6). Briefly: Inhibition of Phosphatidylinositol 4-kinase of human epidermoid carcinoma A431 cells.
Sequence of Phosphatidylinositol 4-kinase type 2-alpha (Q9BTU6 whole entry): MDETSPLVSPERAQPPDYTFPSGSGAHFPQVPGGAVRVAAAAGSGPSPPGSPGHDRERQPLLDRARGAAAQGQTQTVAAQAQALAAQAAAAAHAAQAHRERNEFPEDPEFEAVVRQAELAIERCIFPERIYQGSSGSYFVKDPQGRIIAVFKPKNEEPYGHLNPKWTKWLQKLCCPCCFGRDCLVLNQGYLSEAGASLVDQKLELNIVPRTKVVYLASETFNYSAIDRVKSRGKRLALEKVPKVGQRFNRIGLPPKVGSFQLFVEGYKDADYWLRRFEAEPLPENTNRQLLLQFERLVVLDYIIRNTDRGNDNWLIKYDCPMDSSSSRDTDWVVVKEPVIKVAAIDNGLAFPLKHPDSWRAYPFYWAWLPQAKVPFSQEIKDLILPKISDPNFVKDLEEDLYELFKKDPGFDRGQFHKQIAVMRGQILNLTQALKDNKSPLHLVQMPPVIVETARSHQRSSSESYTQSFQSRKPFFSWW

As usually defined, the IC50 is the concentration at which inhibition is half-maximal. The low end stands for inhibition by little substance, the high end for a need for much substance. Consider `N=C(N)CCNC(=O)c1c[nH]c2nc(N)nc(O)c12` [ECHIGUANINE A], for which half-maximal inhibition (IC50) required 113 nM.
